28 compounds from ChEMBL document CHEMBL3045722, “Synthesis, calcium-channel blocking activity, and conformational analysis of some novel 1,4-dihydropyridines: application of PM3 and DFT computational methods” (Med Chem Res, 2012) can be followed below.

The structures appear in SMILES notation. pIC50: −log10 of the molar value.

For this assay, the target named is Voltage-dependent L-type calcium channel subunit alpha-1C (Cavia porcellus, UniProt O35505). Briefly: Antagonist activity at Cavia porcellus albino (guinea pig) calcium channel assessed as inhibition of KCl-induced ileal longitudinal smooth muscle contraction.
Chain of Voltage-dependent L-type calcium channel subunit alpha-1C (O35505 whole entry): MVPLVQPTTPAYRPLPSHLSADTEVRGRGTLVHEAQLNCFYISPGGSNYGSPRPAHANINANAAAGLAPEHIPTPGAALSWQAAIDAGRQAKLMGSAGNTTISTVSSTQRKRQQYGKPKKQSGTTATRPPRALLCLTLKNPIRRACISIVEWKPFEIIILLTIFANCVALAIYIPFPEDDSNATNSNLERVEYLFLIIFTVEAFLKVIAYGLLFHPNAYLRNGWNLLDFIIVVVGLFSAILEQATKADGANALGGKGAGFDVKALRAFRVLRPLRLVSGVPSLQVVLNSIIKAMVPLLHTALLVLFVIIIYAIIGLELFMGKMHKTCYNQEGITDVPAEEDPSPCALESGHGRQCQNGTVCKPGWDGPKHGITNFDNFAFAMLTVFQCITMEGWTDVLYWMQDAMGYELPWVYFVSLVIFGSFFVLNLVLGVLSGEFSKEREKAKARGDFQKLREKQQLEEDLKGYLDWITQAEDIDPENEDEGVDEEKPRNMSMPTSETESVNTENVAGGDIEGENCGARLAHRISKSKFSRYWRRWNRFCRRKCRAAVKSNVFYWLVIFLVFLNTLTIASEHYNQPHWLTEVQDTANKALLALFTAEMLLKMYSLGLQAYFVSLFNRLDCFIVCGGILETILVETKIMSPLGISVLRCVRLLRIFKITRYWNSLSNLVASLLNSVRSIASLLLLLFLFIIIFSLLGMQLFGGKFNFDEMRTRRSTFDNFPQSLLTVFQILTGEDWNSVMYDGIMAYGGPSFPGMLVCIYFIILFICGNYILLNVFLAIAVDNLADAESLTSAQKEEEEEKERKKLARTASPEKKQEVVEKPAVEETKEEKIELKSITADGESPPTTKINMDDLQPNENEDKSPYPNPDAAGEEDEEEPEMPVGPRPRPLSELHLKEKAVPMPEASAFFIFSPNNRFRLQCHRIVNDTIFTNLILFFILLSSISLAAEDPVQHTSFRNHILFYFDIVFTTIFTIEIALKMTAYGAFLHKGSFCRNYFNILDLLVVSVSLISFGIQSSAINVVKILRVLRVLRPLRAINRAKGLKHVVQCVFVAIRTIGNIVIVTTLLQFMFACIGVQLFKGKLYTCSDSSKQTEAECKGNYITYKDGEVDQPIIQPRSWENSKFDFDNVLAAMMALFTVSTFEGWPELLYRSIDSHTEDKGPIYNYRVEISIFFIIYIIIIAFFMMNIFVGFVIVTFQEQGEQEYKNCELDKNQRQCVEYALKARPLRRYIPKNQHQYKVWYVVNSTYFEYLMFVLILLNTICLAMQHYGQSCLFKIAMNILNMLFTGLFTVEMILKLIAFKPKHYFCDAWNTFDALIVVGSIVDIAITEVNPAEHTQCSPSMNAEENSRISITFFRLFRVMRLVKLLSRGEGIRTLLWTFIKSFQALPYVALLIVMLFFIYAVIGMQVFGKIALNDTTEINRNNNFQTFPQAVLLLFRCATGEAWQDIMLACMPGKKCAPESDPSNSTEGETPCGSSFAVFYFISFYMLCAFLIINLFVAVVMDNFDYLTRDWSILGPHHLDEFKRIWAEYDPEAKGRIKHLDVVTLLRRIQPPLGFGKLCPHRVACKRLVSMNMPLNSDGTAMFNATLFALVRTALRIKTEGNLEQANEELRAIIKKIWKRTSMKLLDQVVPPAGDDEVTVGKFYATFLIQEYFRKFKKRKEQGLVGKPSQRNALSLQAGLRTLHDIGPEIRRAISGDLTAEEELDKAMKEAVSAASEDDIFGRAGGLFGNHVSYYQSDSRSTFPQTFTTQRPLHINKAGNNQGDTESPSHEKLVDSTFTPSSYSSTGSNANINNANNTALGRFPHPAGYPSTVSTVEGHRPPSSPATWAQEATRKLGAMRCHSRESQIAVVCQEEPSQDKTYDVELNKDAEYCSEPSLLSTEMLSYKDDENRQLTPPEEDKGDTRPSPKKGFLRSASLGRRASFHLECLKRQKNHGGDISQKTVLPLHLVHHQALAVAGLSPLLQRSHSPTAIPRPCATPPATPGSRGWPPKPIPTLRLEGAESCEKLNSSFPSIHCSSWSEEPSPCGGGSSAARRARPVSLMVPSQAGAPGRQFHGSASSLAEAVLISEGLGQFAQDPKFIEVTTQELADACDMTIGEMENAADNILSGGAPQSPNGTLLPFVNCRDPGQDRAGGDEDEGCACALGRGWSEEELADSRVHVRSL
The term pIC50 denotes the IC50 on a negative log10 scale, so that one unit is a factor of ten. Turning to `COC(=O)C1=C(C)NC(C)=C(C(=O)OCCCc2ccccc2)C1c1cnc(SC)n1Nc1ccccc1` (stereo not drawn), the pIC50 was 8.52.

Take `CCOC(=O)C1=C(C)NC(C)=C(C(=O)OC(C)C)C1c1cnc(SC)n1Nc1ccccc1` (stereo not drawn): the pIC50 was 8.49.

`CCOC(=O)C1=C(C)NC(C)=C(C(=O)OCCOC)C1c1cnc(SC)n1Nc1ccccc1` (stereo not drawn): the negative logarithm of the IC50 (pIC50) was 8.54. As for `CCOC(=O)C1=C(C)NC(C)=C(C(=O)OCc2ccccc2)C1c1cnc(SC)n1Nc1ccccc1` (stereo not drawn), the pIC50 was 8.73. With `CCOC(=O)C1=C(C)NC(C)=C(C(=O)OCCCc2ccccc2)C1c1cnc(SC)n1Nc1ccccc1` (stereo not drawn), the pIC50 was 8.60. Take `CSc1ncc(C2C(C(=O)OC(C)C)=C(C)NC(C)=C2C(=O)OC(C)(C)C)n1Nc1ccccc1` (stereo not drawn): the pIC50 is 7.17. In the case of `COCCOC(=O)C1=C(C)NC(C)=C(C(=O)OC(C)C)C1c1cnc(SC)n1Nc1ccccc1` (stereo not drawn), the negative logarithm of the IC50 (pIC50) was 7.27. Take `CSc1ncc(C2C(C(=O)OCc3ccccc3)=C(C)NC(C)=C2C(=O)OC(C)C)n1Nc1ccccc1` (stereo not drawn): the pIC50 is 8.14. The result for `CSc1ncc(C2C(C(=O)OCCCc3ccccc3)=C(C)NC(C)=C2C(=O)OC(C)C)n1Nc1ccccc1` (stereo not drawn) reads 8.21; that for `CSc1ncc(C2C(C(=O)OCC3CCCCC3)=C(C)NC(C)=C2C(=O)OC(C)C)n1Nc1ccccc1` (stereo not drawn), 7.25; that for `CSc1ncc(C2C(C(=O)OCC(C)C)=C(C)NC(C)=C2C(=O)OCC(C)C)n1Nc1ccccc1`, 8.17. For the compound `COCCOC(=O)C1=C(C)NC(C)=C(C(=O)OCCOC)C1c1cnc(SC)n1Nc1ccccc1`, the pIC50 was 7.75.

For the compound `CSc1ncc(C2C(C(=O)OC3CCCC3)=C(C)NC(C)=C2C(=O)OC2CCCC2)n1Nc1ccccc1`, the pIC50 was 6.37. Then `CSc1ncc(C2C(C(=O)OC3CCCCC3)=C(C)NC(C)=C2C(=O)OC2CCCCC2)n1Nc1ccccc1`, with 6.33. As for `CSc1ncc(C2C(C(=O)OCC3CCCCC3)=C(C)NC(C)=C2C(=O)OCC2CCCCC2)n1Nc1ccccc1`, the pIC50 was 6.21. As for `COC(=O)C1=C(C)NC(C)=C(C(=O)OC)C1c1cnc(SC)n1Nc1ccccc1`, the negative-log IC50 (pIC50) was 8.45.

On to `CCOC(=O)C1=C(C)NC(C)=C(C(=O)OCC)C1c1cnc(SC)n1Nc1ccccc1`, for which the pIC50 was 8.77.

On to `CCCOC(=O)C1=C(C)NC(C)=C(C(=O)OCCC)C1c1cnc(SC)n1Nc1ccccc1`, for which the pIC50 is 8.64. Turning to `CSc1ncc(C2C(C(=O)OC(C)C)=C(C)NC(C)=C2C(=O)OC(C)C)n1Nc1ccccc1`, the pIC50 was 8.67. For the compound `CSc1ncc(C2C(C(=O)OC(C)(C)C)=C(C)NC(C)=C2C(=O)OC(C)(C)C)n1Nc1ccccc1`, the pIC50 is 6.92. As for `CSc1ncc(C2C(C(=O)OCc3ccccc3)=C(C)NC(C)=C2C(=O)OCc2ccccc2)n1Nc1ccccc1`, the pIC50 is 8.83. Turning to `CSc1ncc(C2C(C(=O)OCCc3ccccc3)=C(C)NC(C)=C2C(=O)OCCc2ccccc2)n1Nc1ccccc1`, the pIC50 is 8.55. Take `CSc1ncc(C2C(C(=O)OCCCc3ccccc3)=C(C)NC(C)=C2C(=O)OCCCc2ccccc2)n1Nc1ccccc1`: the negative-log IC50 (pIC50) was 8.50.

As to `CCOC(=O)C1=C(C)NC(C)=C(C(=O)OC)C1c1cnc(SC)n1Nc1ccccc1` (stereo not drawn), the pIC50 was 8.78. Take `CCCOC(=O)C1=C(C)NC(C)=C(C(=O)OC)C1c1cnc(SC)n1Nc1ccccc1` (stereo not drawn): the pIC50 is 8.62.

With `COC(=O)C1=C(C)NC(C)=C(C(=O)OC(C)C)C1c1cnc(SC)n1Nc1ccccc1` (stereo not drawn), the pIC50 is 8.20. For `COCCOC(=O)C1=C(C)NC(C)=C(C(=O)OC)C1c1cnc(SC)n1Nc1ccccc1` (stereo not drawn), the pIC50 is 8.02.

With `COC(=O)C1=C(C)NC(C)=C(C(=O)OCc2ccccc2)C1c1cnc(SC)n1Nc1ccccc1` (stereo not drawn), the pIC50 was 8.66.
